Data as given in PMC9604400, “Synthesis, Anticancer and Antitubercular Properties of New Chalcones and Their Nitrogen-Containing Five-Membered Heterocyclic Hybrids Bearing Sulfonamide Moiety” (International Journal of Molecular Sciences, 2022).
Converted amounts (≈) assume the structure as drawn. Marks after values point to notes of the source that are not given here.

What was measured:
Test in all cases: microbe, parasite or virus in culture
[1] = system: M. tuberculosis Haarlem; type: cell-based; conditions: Mycobacterium tuberculosis
[2] = system: M. tuberculosis ATCC 35822; type: cell-based; conditions: Mycobacterium tuberculosis, ATCC35822
[3] = system: M. tuberculosis Beijing; type: cell-based; conditions: Mycobacterium tuberculosis
[4] = system: M. tuberculosis LAM9 SIT 42; type: cell-based, Mycobacterium tuberculosis
[5] = system: M. tuberculosis Orphan strain; type: cell-based; conditions: Mycobacterium tuberculosis
[6] = system: M. tuberculosis ATCC 35838; type: cell-based, Mycobacterium tuberculosis
[7] = Mycobacterium tuberculosis, LAM9SIT42, c. M. tuberculosis LAM9 SIT 42
[8] = Mycobacterium tuberculosis, ATCC35838, f. M. tuberculosis ATCC 35838 (rifampicin-resistant)
[9] = f. M. tuberculosis ATCC 35838 (rifampicin-resistant)

Compound	MIC [1] [µM]	MIC [2] [µM]	MIC [3] [µM]	MIC [4, 7] [µM]	MIC [5] [µM]	MIC [6, 8] [µM]	MIC [6, 9]	MIC ([4]; c. M. tuberculosis LAM9 SIT 42)
COc1cc(OC)c(S(N)(=O)=O)cc1C(=O)C=Cc1ccccc1 [Compound 17a, 5-Cinnamoyl-2,4-dimethoxybenzenesulfonamide]	> 29	> 29	29 (≈ 10.1 µg/mL)	> 29	29 (≈ 10.1 µg/mL)	29 (≈ 10.1 µg/mL)		
COc1cc(OC)c(S(N)(=O)=O)cc1C(=O)/C=C/c1ccc2c(c1)OCO2 [Compound 17f, (E)-5-(3-(Benzo[d][1,3]dioxol-5-yl)acryloyl)-2,4-dimethoxybenzenesulfonamide]	> 2	> 25	> 2	> 2	> 2	> 25		
COc1ccc(C(=O)C=Cc2ccccc2)cc1S(=O)(=O)NNC(=O)c1ccncc1 [Compound 19a, 5-Cinnamoyl-N’-isonicotinoyl-2-methoxybenzenesulfonohydrazide]	> 23	> 23	23 (≈ 10.1 µg/mL)	23 (≈ 10.1 µg/mL)	> 23	< 12	<11 µM	
COc1ccc(/C=C/C(=O)c2ccc(OC)c(S(=O)(=O)NNC(=O)c3ccncc3)c2)cc1 [Compound 19d, (E)-N’-Isonicotinoyl-2-methoxy-5-(3-(4-methoxyphenyl)acryloyl)benzenesulfonohydrazide]	> 21	> 21	21 (≈ 9.82 µg/mL)	21 (≈ 9.82 µg/mL)	21 (≈ 9.82 µg/mL)	21 (≈ 9.82 µg/mL)		
COc1cc(OC)c(S(=O)(=O)NNC(=O)c2ccncc2)cc1C(=O)C=Cc1ccccc1 [Compound 20a, 5-Cinnamoyl-N’-isonicotinoyl-2,4-dimethoxybenzenesulfonohydrazide]	> 21	> 21	< 11	21 (≈ 9.82 µg/mL)	> 21	< 12	<11 * µM	
COc1ccc(/C=C/C(=O)c2cc(S(=O)(=O)NNC(=O)c3ccncc3)c(OC)cc2OC)cc1 [Compound 20d, (E)-N’-Isonicotinoyl-2,4-dimethoxy-5-(3-(4-methoxyphenyl)acryloyl)benzenesulfonohydrazide]	> 20	> 20	> 20	> 20	> 20	20 (≈ 9.95 µg/mL)		
COc1cc(OC)c(S(=O)(=O)NNC(=O)c2ccncc2)cc1C(=O)/C=C/c1cc(OC)c(OC)c(OC)c1 [Compound 20e, (E)-N’-Isonicotinoyl-2,4-dimethoxy-5-(3-(3,4,5-trimethoxyphenyl)acryloyl)benzenesulfonohydrazide]	> 18	> 18	< 9	8.97 (≈ 5 µg/mL)	> 18	< 12	<9.0 * µM	<9.0 * µM
COc1cc(OC)c(S(=O)(=O)NNC(=O)c2ccncc2)cc1C(=O)/C=C/c1ccc2c(c1)OCO2 [Compound 20f, (E)-5-(3-(Benzo[d][1,3]dioxol-5-yl)acryloyl)-N’-isonicotinoyl-2,4-dimethoxybenzenesulfonohydrazide]	> 20	> 20	20 (≈ 10.2 µg/mL)	9.77 (≈ 5 µg/mL)	> 20	< 12	<10 * µM	<10 µM
C[C@H]1COc2c(N3CCN(C)CC3)c(F)cc3c(=O)c(C(=O)O)cn1c23 [Levofloxacin, levofloxacin, reference compound]	2.8 (≈ 1.01 µg/mL)	2.8 (≈ 1.01 µg/mL)	2.8 (≈ 1.01 µg/mL)	2.8 (≈ 1.01 µg/mL)	2.8 (≈ 1.01 µg/mL)	2.8 (≈ 1.01 µg/mL)		
